Laboratory results reported in US9790178B2, “Pyrrolidinyl urea, thiourea, guanidine and cyanoguanidine compounds as TrkA kinase inhibitors” (Array BioPharma Inc., priority 2012, dated 2017).

Legend:
Test in all cases: KinaseProfiler off-target kinase profiling
Type in all cases: biochemical
Settings in all cases: 10 μM, ATP near Km
[1] = molecular target: T1, GRK6 (Homo sapiens, UniProt P43250)
T1 construct: purchased Millipore, Inc. (KinaseProfiler service)
Procedure: (§1) A representative compound of the invention (Example 20) was tested for off-target kinase activity at a concentration of 10 μM by Millipore, Inc. in their KinaseProfiler™ service against all the kinases available in their full kinase panel. The compound was run in duplicate at a concentration of ATP near the Km for each individual kinase according to Millipore's specifications. The results are shown in Table B. Data are reported as percent of control (POC) and are the average of the two replicates.

[2] = molecular target: T2, SGK2 (Homo sapiens, UniProt Q9HBY8)
T2 construct: purchased Millipore, Inc. (KinaseProfiler service)
Procedure: as §1

[3] = molecular target: T3, SGK3 (Homo sapiens, UniProt Q96BR1)
T3 construct: purchased Millipore, Inc. (KinaseProfiler service)
Procedure: as §1

[4] = molecular target: T4, CDK1/cyclinB (Homo sapiens, UniProt P06493)
T4 construct: purchased Millipore, Inc. (KinaseProfiler service)
Procedure: as §1

[5] = molecular target: T5, PRKG1beta (Homo sapiens, UniProt Q13976)
T5 construct: purchased Millipore (KinaseProfiler service)
Procedure: as §1

[6] = molecular target: T6, Rsk4 (Homo sapiens, UniProt Q9UK32)
T6 construct: purchased Millipore, Inc. (KinaseProfiler service)
Procedure: as §1

[7] = molecular target: T7, FGFR3 (Homo sapiens, UniProt P22607)
T7 construct: purchased Millipore, Inc. (KinaseProfiler service)
Procedure: as §1

[8] = molecular target: T8, LKB1 (Homo sapiens, UniProt Q15831)
T8 construct: purchased Millipore, Inc. (KinaseProfiler service)
Procedure: as §1

[9] = molecular target: T9, HIPK1 (Homo sapiens, UniProt Q86Z02)
T9 construct: purchased Millipore, Inc. (KinaseProfiler service)
Procedure: as §1

[10] = molecular target: T10, NLK (Homo sapiens, UniProt Q9UBE8)
T10 construct: purchased Millipore, Inc. (KinaseProfiler service)
T10 sequence (Q9UBE8 whole entry): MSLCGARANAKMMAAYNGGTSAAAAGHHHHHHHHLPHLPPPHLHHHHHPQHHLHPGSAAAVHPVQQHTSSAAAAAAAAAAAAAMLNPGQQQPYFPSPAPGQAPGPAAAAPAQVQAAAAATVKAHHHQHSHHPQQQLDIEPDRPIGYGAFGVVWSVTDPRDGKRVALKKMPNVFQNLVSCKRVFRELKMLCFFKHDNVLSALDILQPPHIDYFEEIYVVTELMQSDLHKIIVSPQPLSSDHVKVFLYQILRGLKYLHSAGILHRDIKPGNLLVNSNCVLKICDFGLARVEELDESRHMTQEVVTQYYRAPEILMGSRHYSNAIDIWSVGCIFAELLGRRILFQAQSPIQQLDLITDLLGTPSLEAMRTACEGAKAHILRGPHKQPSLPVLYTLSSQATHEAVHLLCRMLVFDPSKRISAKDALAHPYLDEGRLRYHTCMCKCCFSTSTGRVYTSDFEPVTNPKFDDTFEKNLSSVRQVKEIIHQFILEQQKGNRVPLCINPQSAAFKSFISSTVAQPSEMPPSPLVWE
Procedure: as §1

[11] = molecular target: T11, CK2alpha2 (Homo sapiens, UniProt P19784)
T11 construct: purchased Millipore, Inc. (KinaseProfiler service)
Procedure: as §1

[12] = molecular target: T12, NEK7 (Homo sapiens, UniProt Q8TDX7)
T12 construct: purchased Millipore, Inc. (KinaseProfiler service)
Procedure: as §1

[13] = molecular target: T13, CAMK2d (Homo sapiens, UniProt Q13557)
T13 construct: purchased Millipore, Inc. (KinaseProfiler service)
Procedure: as §1

[14] = molecular target: T14, Bmx (Homo sapiens, UniProt P51813)
T14 construct: purchased Millipore, Inc. (KinaseProfiler service)
Procedure: as §1

[15] = molecular target: T15, Syk (Homo sapiens, UniProt P43405)
T15 construct: purchased Millipore, Inc. (KinaseProfiler service)
Procedure: as §1

[16] = molecular target: T16, Pyk2 (Homo sapiens, UniProt Q14289)
T16 construct: purchased Millipore (KinaseProfiler service)
T16 sequence (Q14289 whole entry): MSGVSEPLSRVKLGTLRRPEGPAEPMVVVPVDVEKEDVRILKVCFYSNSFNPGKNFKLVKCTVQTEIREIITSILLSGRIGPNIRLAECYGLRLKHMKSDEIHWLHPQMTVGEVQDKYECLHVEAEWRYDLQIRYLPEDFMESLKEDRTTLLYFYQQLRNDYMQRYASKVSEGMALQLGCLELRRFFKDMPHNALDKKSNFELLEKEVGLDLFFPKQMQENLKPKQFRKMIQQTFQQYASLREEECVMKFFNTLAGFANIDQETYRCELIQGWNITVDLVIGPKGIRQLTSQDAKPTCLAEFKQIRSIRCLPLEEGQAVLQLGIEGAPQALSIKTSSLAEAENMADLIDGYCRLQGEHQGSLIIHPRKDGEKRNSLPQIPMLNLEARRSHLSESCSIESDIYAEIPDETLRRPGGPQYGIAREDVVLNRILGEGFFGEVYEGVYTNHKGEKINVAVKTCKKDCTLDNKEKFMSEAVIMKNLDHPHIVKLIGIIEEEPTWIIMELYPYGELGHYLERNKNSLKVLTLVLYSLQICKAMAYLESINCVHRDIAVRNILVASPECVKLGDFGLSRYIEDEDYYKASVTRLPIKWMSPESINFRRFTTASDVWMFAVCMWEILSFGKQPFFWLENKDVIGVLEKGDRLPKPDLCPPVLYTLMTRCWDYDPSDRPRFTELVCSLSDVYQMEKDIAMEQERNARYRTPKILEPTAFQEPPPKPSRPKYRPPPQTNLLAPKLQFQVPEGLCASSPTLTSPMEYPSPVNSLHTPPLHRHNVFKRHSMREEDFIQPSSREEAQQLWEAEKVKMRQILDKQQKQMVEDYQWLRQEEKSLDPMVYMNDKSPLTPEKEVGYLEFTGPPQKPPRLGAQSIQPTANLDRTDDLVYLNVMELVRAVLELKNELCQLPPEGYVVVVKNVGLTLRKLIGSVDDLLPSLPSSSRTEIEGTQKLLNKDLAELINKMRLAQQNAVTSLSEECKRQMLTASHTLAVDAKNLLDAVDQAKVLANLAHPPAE
Procedure: as §1

[17] = molecular target: T17, DMPK (Homo sapiens, UniProt Q09013)
T17 construct: purchased Millipore, Inc. (KinaseProfiler service)
Procedure: as §1

[18] = molecular target: T18, PKCzeta (Homo sapiens, UniProt Q05513)
T18 construct: purchased Millipore (KinaseProfiler service)
Procedure: as §1

[19] = molecular target: T19, IR Activated (Homo sapiens, UniProt P06213)
T19 construct: purchased Millipore, Inc. (KinaseProfiler service)
Procedure: as §1

[20] = molecular target: T20, p38gamma (Homo sapiens, UniProt P53778)
T20 construct: purchased Millipore, Inc. (KinaseProfiler service)
Procedure: as §1

[21] = molecular target: T21, PKCdelta (Homo sapiens, UniProt Q05655)
T21 construct: purchased Millipore, Inc. (KinaseProfiler service)
Procedure: as §1

[22] = molecular target: T22, JAK3 (Homo sapiens, UniProt P52333)
T22 construct: purchased Millipore, Inc. (KinaseProfiler service)
Procedure: as §1

[23] = molecular target: T23, PKCmu (Homo sapiens, UniProt Q15139)
T23 construct: purchased Millipore (KinaseProfiler service)
Procedure: as §1

[24] = molecular target: T24, Hck (Homo sapiens, UniProt P08631)
T24 construct: purchased Millipore, Inc. (KinaseProfiler service)
Procedure: as §1

[25] = molecular target: T25, CDK5/p35 (Homo sapiens, UniProt Q00535)
T25 construct: purchased Millipore, Inc. (KinaseProfiler service)
Procedure: as §1

[26] = molecular target: T26, MINK (Homo sapiens, UniProt Q8N4C8)
T26 construct: purchased Millipore, Inc. (KinaseProfiler service)
Procedure: as §1

[27] = molecular target: T27, PKD2 (Homo sapiens, UniProt Q9BZL6)
T27 construct: purchased Millipore (KinaseProfiler service)
Procedure: as §1

[28] = molecular target: T28, MRCKbeta (Homo sapiens, UniProt Q9Y5S2)
T28 construct: purchased Millipore, Inc. (KinaseProfiler service)
T28 sequence (Q9Y5S2 whole entry): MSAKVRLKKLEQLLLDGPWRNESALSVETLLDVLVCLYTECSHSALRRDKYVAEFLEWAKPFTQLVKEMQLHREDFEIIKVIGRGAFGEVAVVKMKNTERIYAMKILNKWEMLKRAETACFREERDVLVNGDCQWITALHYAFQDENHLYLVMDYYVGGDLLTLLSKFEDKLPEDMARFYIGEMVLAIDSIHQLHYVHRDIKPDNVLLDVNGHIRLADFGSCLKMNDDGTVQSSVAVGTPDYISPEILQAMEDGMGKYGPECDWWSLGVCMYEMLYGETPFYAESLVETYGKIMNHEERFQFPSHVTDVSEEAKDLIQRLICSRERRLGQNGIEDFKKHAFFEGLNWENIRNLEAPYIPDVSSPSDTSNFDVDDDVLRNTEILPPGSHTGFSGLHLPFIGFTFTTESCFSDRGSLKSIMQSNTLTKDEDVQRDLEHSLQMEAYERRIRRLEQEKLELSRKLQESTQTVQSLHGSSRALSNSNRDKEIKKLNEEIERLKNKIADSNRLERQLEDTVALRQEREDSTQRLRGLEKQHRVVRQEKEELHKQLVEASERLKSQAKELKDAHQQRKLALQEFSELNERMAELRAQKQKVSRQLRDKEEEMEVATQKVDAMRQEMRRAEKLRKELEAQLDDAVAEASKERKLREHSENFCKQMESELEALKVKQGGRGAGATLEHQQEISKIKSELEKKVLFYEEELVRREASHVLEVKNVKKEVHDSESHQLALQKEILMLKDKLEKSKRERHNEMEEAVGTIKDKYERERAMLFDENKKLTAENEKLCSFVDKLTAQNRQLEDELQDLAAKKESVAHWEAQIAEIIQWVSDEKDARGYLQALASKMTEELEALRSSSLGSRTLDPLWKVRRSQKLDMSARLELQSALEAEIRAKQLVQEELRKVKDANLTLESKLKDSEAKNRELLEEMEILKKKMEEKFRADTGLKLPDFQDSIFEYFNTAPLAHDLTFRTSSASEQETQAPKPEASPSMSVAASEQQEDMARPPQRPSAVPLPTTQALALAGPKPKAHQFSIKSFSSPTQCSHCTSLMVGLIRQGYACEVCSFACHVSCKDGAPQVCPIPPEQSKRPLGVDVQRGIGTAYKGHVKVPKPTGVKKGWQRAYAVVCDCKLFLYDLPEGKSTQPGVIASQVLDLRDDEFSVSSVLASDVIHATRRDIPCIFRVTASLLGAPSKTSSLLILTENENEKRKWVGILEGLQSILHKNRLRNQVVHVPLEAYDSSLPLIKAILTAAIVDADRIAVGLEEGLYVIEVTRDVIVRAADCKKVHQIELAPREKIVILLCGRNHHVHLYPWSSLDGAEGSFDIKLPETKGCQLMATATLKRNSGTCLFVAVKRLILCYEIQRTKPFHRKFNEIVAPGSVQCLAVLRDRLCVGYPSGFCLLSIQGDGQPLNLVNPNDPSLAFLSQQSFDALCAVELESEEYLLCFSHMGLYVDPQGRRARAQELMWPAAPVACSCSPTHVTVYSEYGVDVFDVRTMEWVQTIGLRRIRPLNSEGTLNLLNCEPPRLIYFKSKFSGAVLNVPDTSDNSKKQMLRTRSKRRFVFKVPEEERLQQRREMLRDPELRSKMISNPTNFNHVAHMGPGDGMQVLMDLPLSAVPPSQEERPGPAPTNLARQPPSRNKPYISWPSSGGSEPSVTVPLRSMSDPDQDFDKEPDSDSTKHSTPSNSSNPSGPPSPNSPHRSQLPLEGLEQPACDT
Procedure: as §1

[29] = molecular target: T29, CDK2/cyclinA (Homo sapiens, UniProt P24941)
T29 construct: purchased Millipore, Inc. (KinaseProfiler service)
Procedure: as §1

[30] = molecular target: T30, CSK (Homo sapiens, UniProt P41240)
T30 construct: purchased Millipore, Inc. (KinaseProfiler service)
T30 sequence (P41240 whole entry): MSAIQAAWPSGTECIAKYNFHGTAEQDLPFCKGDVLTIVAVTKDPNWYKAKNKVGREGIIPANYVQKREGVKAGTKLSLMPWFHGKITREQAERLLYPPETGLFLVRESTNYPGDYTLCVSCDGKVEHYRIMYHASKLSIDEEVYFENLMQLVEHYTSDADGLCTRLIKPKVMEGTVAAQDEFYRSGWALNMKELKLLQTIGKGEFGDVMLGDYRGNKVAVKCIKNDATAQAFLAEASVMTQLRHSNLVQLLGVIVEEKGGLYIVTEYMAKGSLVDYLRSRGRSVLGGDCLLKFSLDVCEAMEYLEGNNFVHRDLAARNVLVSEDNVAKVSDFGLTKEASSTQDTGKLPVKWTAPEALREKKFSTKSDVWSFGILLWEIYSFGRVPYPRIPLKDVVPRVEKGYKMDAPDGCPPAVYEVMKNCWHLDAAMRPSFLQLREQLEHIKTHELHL
Procedure: as §1

[31] = molecular target: T31, CK1gamma1 (Homo sapiens, UniProt Q9HCP0)
T31 construct: purchased Millipore, Inc. (KinaseProfiler service)
Procedure: as §1

[32] = molecular target: T32, Plk2 (Homo sapiens, UniProt Q9NYY3)
T32 construct: purchased Millipore (KinaseProfiler service)
Procedure: as §1

[33] = molecular target: T33, JNK1alpha1 (Homo sapiens, UniProt P45983)
T33 construct: purchased Millipore, Inc. (KinaseProfiler service)
Procedure: as §1

[34] = molecular target: T34, Tie2 (Homo sapiens, UniProt Q02763)
T34 construct: purchased Millipore, Inc. (KinaseProfiler service)
Procedure: as §1

[35] = molecular target: T35, PDGFRalpha (Homo sapiens, UniProt P16234)
T35 construct: purchased Millipore, Inc. (KinaseProfiler service)
Procedure: as §1

[36] = molecular target: T36, SRC (Homo sapiens, UniProt P12931)
T36 construct: purchased Millipore, Inc. (KinaseProfiler service)
T36 sequence (P12931 whole entry): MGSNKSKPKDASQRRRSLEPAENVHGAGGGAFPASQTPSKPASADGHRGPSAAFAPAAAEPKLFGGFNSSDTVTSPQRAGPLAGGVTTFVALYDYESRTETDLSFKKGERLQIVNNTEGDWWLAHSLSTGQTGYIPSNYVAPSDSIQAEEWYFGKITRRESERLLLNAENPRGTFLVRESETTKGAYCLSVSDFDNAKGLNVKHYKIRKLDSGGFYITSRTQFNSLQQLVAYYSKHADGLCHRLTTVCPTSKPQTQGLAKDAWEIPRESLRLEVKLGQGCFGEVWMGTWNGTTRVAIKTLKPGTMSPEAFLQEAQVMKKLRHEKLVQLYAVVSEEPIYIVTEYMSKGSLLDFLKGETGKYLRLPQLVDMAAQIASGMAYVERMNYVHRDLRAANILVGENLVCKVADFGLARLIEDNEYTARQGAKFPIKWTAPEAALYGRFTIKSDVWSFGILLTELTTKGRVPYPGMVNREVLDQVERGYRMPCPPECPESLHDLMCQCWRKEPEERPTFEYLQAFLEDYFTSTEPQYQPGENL
Procedure: as §1

[37] = molecular target: T37, DAPK3 (Homo sapiens, UniProt O43293)
T37 construct: purchased Millipore, Inc. (KinaseProfiler service)
Procedure: as §1

[38] = molecular target: T38, CK1gamma2 (Homo sapiens, UniProt P78368)
T38 construct: purchased Millipore, Inc. (KinaseProfiler service)
Procedure: as §1

[39] = molecular target: T39, CAMK1 (Homo sapiens, UniProt Q14012)
T39 construct: purchased Millipore, Inc. (KinaseProfiler service)
Procedure: as §1

[40] = molecular target: T40, PDGFRbeta (Homo sapiens, UniProt P09619)
T40 construct: purchased Millipore, Inc. (KinaseProfiler service)
Procedure: as §1

[41] = molecular target: T41, PKCiota (Homo sapiens, UniProt P41743)
T41 construct: purchased Millipore (KinaseProfiler service)
Procedure: as §1

T1 sequence (P43250 whole entry): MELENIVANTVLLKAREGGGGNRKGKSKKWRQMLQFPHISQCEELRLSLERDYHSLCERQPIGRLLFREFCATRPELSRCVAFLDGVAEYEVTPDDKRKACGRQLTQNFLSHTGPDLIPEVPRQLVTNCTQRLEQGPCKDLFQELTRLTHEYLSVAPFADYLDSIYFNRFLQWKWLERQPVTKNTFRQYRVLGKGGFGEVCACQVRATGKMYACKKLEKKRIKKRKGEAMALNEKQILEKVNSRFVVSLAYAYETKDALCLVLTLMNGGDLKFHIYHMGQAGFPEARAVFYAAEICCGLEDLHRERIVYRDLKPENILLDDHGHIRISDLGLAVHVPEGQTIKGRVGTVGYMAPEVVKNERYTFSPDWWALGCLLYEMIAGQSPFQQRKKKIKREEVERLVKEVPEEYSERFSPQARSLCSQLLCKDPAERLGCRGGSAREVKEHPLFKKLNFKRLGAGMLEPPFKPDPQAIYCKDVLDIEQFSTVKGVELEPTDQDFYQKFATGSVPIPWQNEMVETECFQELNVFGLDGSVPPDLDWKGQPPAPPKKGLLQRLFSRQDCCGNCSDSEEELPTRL

SMILES: COCCN1C[C@@H](NC(=O)Nc2c(-c3ccccc3)nc3c(C)nccn23)[C@H](c2ccc(F)c(F)c2)C1 [Example 20, 1-((3S,4R)-4-(3,4-difluorophenyl)-1-(2-methoxyethyl)pyrrolidin-3-yl)-3-(8-methyl-2-phenylimidazo[1,2-a]pyrazin-3-yl)urea]
- Avg. POC [1]: 110 POC
- Avg. POC [2]: 105 POC
- Avg. POC [3]: 109 POC
- Avg. POC [4]: 99 POC
- Avg. POC [5]: 124 POC
- Avg. POC [6]: 147 POC
- Avg. POC [7]: 101 POC
- Avg. POC [8]: 105 POC
- Avg. POC [9]: 111 POC
- Avg. POC [10]: 99 POC
- Avg. POC [11]: 104 POC
- Avg. POC [12]: 105.5 POC
- Avg. POC [13]: 102 POC
- Avg. POC [14]: 103.5 POC
- Avg. POC [15]: 99.5 POC
- Avg. POC [16]: 98.5 POC
- Avg. POC [17]: 105.5 POC
- Avg. POC [18]: 104 POC
- Avg. POC [19]: 108 POC
- Avg. POC [20]: 105.5 POC
- Avg. POC [21]: 106.5 POC
- Avg. POC [22]: 115 POC
- Avg. POC [23]: 100.5 POC
- Avg. POC [24]: 110 POC
- Avg. POC [25]: 121 POC
- Avg. POC [26]: 99 POC
- Avg. POC [27]: 113.5 POC
- Avg. POC [28]: 118.5 POC
- Avg. POC [29]: 112 POC
- Avg. POC [30]: 104.5 POC
- Avg. POC [31]: 109 POC
- Avg. POC [32]: 106 POC
- Avg. POC [33]: 105 POC
- Avg. POC [34]: 119 POC
- Avg. POC [35]: 105.5 POC
- Avg. POC [36]: 107 POC
- Avg. POC [37]: 103 POC
- Avg. POC [38]: 110 POC
- Avg. POC [39]: 105.5 POC
- Avg. POC [40]: 114 POC
- Avg. POC [41]: 101.5 POC
